One may read the inhibition as the relative decrease from the control value, in per cent.

From patent US20240268388A1, “AGRICULTURAL AND HORTICULTURAL FUNGICIDAL COMPOSITION” (NIPPON SODA CO., LTD., priority 2021, published 2024) come the findings set out here.

Where two headings read alike, the source gives them in different places.

Assay [1] deals with cucumber anthracnose pathogen (Colletotrichum lagenarium). Kind of assay: Fungicidal test for cucumber anthracnose (microplate, turbidity at 405 nm). Format: cell-based. Particulars: for inhibition at 0.025 ppm / inhibition at 0.1 ppm / inhibition at 0.4 ppm: Colletotrichum orbiculare, read-out: growth inhibition rate. Here is the method: The compounds were dissolved in dimethyl sulfoxide to prepare a chemical agent solution.
A mixture of the prescribed concentration of the chemical agent solution, cucumber anthracnose pathogen (Colletotrichum lagenarium) conidia, and Vogel medium was prepared on a microplate and incubated at 20° C. in the dark for 7 days.
Each expected value was calculated using Colby's equation:
[formula] • where E represents the expected value of the growth inhibition rate (%), M represents the growth inhibition rate (%) when the component (I) is used alone, and N represents the growth inhibition rate (%) when the component (II) is used alone.

Assay [2] relates to soybean rust pathogen (Phakopsora pachyrhizi). Kind of assay: Soybean rust control test (leaf discs). It is filed as in vivo.
Assay [3] relates to wheat leaf blight pathogen (Septoria tritici). Kind of assay: Fungicidal test for wheat leaf blight (microplate, turbidity at 405 nm). It is filed as cell-based. The settings on record: for inhibition at 6.3 ppm / inhibition at 12.5 ppm / inhibition at 25 ppm / inhibition at 50 ppm / inhibition at 100 ppm: Zymoseptoria tritici, component (I) alone, read-out: growth inhibition rate; for growth inhibition rate: component (II) alone. The protocol:
Compounds of component (I) and component (II) were dissolved in dimethyl sulfoxide at 10,000 ppm and diluted with water to the prescribed concentration to prepare a chemical agent solution. A mixture of the prescribed concentration of the chemical agent solution, wheat leaf blight pathogen (Septoria tritici) conidia, and malt extract was prepared on a microplate and incubated at 20° C. in the dark for 3 days. The turbidity at a wavelength of 405 nm was measured with a microplate reader, and the growth of wheat leaf blight pathogen was compared with that of no treatment control to determine the growth inhibition rate. The results are shown in Tables 2 to 7, along with the expected values calculated as below.
Each expected value was calculated from the fungicidal efficacy of a single application of the compound of component (I) and the fungicidal efficacy of a single application of compound of component (II) by using Colby's equation (S. R. Colby, Calculating synergistic and antagonistic responses of herbicide combinations, Weeds, 15, 20-22 pp (1967)).
[formula] • where E represents the expected value of the growth inhibition rate (%) for the composition containing component (I) and component (II), M represents the growth inhibition rate (%) when the component (I) is used alone, and N represents the growth inhibition rate (%) when the component (II) is used alone. When the measured growth inhibition rate (%) for the composition containing component (I) and component (II) is greater than the expected value E, the composition containing components (I) and component (II) should exert a synergistic effect.

The mark [4] stands for this setting: component (I) alone, 0.0063 ppm.
Setting [5] is: Table 19, component (II) alone (component (I): None): Ipflufenoquin 0.000026, Iminoctadine trialbesilate 0.0032, Cyflufenamid 10, Cyprodinil 0.00013, Potassium bicarbonate 0.08, Thiophanate-methyl 0.08, Picarbutrazox 0.016, Fludioxonil 0.0032, Florylpicoxamid 0.0032, Metyltetraprole 0.08, Mefentrifluconazole 0.4 ppm.
The mark [6] stands for this setting: Table 20, component (II) alone (component (I): None): Ipflufenoquin 0.00064, Iminoctadine trialbesilate 0.0032, Cyflufenamid 10, Cyprodinil 0.00013, Potassium bicarbonate 0.08, Thiophanate-methyl 0.4, Picarbutrazox 0.016, Fludioxonil 0.0032, Florylpicoxamid 0.0032, Metyltetraprole 0.08, Mefentrifluconazole 0.4 ppm.
Setting [7] is: Table 21, component (II) alone (component (I): None): Ipflufenoquin 0.00064, Iminoctadine trialbesilate 0.0032, Cyflufenamid 10, Cyprodinil 0.00013, Potassium bicarbonate 0.08, Thiophanate-methyl 0.4, Picarbutrazox 0.00064, Fludioxonil 0.0032, Florylpicoxamid 0.0032, Metyltetraprole 0.08, Mefentrifluconazole 0.4 ppm.
Setting [8] is: Table 22, component (II) alone (component (I): None): Ipflufenoquin 0.00064, Iminoctadine trialbesilate 0.0032, Cyflufenamid 10, Cyprodinil 0.00013, Potassium bicarbonate 0.08, Thiophanate-methyl 0.4, Picarbutrazox 0.00064, Fludioxonil 0.0032, Florylpicoxamid 0.0032, Metyltetraprole 0.08, Mefentrifluconazole 0.4 ppm.
[9] abbreviates: Table 23, component (II) alone (component (I): None): Ipflufenoquin 0.00064, Iminoctadine trialbesilate 0.0032, Cyflufenamid 10, Cyprodinil 0.000026, Potassium bicarbonate 0.08, Thiophanate-methyl 0.4, Picarbutrazox 0.00064, Fludioxonil 0.00064, Florylpicoxamid 0.0032, Metyltetraprole 0.08, Mefentrifluconazole 0.4 ppm.
Setting [10] is: Table 24, component (II) alone (component (I): None): Ipflufenoquin 0.00064, Iminoctadine trialbesilate 0.0032, Cyflufenamid 10, Cyprodinil 0.00013, Potassium bicarbonate 0.08, Thiophanate-methyl 0.4, Picarbutrazox 0.00064, Fludioxonil 0.00013, Florylpicoxamid 0.0032, Metyltetraprole 0.08, Mefentrifluconazole 0.4 ppm.

As to `CCON=C1CN(C(=O)C(C)c2ccc(-c3noc(C(F)(F)F)n3)cc2)C1` (stereo not shown) [Compound 6], in assay [1] (Compound 6 alone), the inhibition at 0.025 ppm worked out at 32%, the inhibition at 0.1 ppm stood at 67% and the inhibition at 0.4 ppm worked out at 86%. For the same compound, the control value in assay [2] (setting [4]) was 19%. Moreover, the control value in assay [2] (component (I) alone, 0.025 ppm) was determined as 49%. Besides, the control value in assay [2] (component (I) alone, 0.1 ppm) worked out at 76%. Further, the control value in assay [2] (component (I) alone, 0.4 ppm) was 98%. For the same compound, in assay [3], the inhibition at 6.3 ppm is 47%, the inhibition at 12.5 ppm was found to be 58%, the inhibition at 25 ppm was determined as 63% and the inhibition at 50 ppm came out at 64%. The inhibition at 100 ppm in assay [3] was 69%.
Take `Cc1nc2c(F)c(F)ccc2cc1Oc1cccc(F)c1C(C)(C)O` [Ipflufenoquin, ipflufenoquin, reference compound]: the growth inhibition rate is on record as 0% in assay [1] (setting [5]); 47% in assay [1] (setting [6]); 47% in assay [1] (setting [7]); 47% in assay [1] (setting [8]); 47% in assay [1] (setting [9]); 47% in assay [1] (setting [10]). Also, the growth inhibition rate in assay [3] (0.06 ppm) turned out to be 6%; in assay [3] (0.25 ppm) it was 6%; in assay [3] (1 ppm) it was 22%.
As for `COc1ccnc(C(=O)N[C@@H](C)C(=O)O[C@@H](C)C(c2ccc(F)cc2)c2ccc(F)cc2)c1OC(C)=O` [Florylpicoxamid, florylpicoxamid, reference compound], the growth inhibition rate in assay [1] (setting [5]), in assay [1] (setting [6]), in assay [1] (setting [7]), in assay [1] (setting [8]), in assay [1] (setting [9]) and in assay [1] (setting [10]) was 0% in each case. Also, the values for the growth inhibition rate in assay [3] (0.001 ppm) and in assay [3] (.0002 ppm (also printed 0002)) were 80% and 70%, respectively. For the same compound, the control value in assay [2] (Table 14, component (II) alone (component (I): None): Inpyrfluxam 0.00025, Chlorothalonil 0.006, Thiophanate-methyl 0.0001, Tebuconazole 0.000025, Trifloxystrobin 0.0001, Fluazinam 0.006, Prothioconazole 0.000025, Florylpicoxamid 0.0001, Metominostrobin 0.0004 ppm) is 27%; in assay [2] (Table 15, component (II) alone (component (I): None): Azoxystrobin 0.0001, Inpyrfluxam 0.000025, Chlorothalonil 0.0063, Difenoconazole 0.000025, Cyproconazole 0.000025, Tebuconazole 0.000025, Trifloxystrobin 0.0001, Pyraclostrobin 0.0001, Fluazinam 0.0063, Fluxapyroxad 0.000025, Prothioconazole 0.000025, Florylpicoxamid 0.0001, Benzovindiflupyr 0.000025, Mancozeb 0.0063 ppm), 0%; in assay [2] (Table 16, component (II) alone (component (I): None): Inpyrfluxam 0.000025, Chlorothalonil 0.006, Thiophanate-methyl 0.0001, Tebuconazole 0.000025, Trifloxystrobin 0.0001, Fluazinam 0.006, Prothioconazole 0.000025, Florylpicoxamid 0.0001, Metominostrobin 0.0004 ppm) it was 27%; in assay [2] (Table 17, component (II) alone (component (I): None): Inpyrfluxam 0.000026, Chlorothalonil 0.02, Thiophanate-methyl 0.0004, Tebuconazole 0.0001, Trifloxystrobin 0.0001, Fluazinam 0.006, Prothioconazole 0.000025, Florylpicoxamid 0.0001, Metominostrobin 0.0004 ppm), 27%; in assay [2] (Table 18, component (II) alone (component (I): None): Azoxystrobin 0.0001, Inpyrfluxam 0.000025, Chlorothalonil 0.0063, Difenoconazole 0.000025, Cyproconazole 0.000025, Tebuconazole 0.000025, Trifloxystrobin 0.0001, Pyraclostrobin 0.0001, Fluazinam 0.0063, Fluxapyroxad 0.000025, Prothioconazole 0.000025, Florylpicoxamid 0.0001, Benzovindiflupyr 0.000025, Mancozeb 0.0063 ppm), 0%.
`N#CCON=C1CN(C(=O)Cc2ccc(-c3noc(C(F)(F)F)n3)cc2)C1` [Compound 3]: in assay [1] (Compound 3 alone), the inhibition at 0.025 ppm stood at 26%, the inhibition at 0.1 ppm is 9% and the inhibition at 0.4 ppm amounted to 84%. Moreover, the control value in assay [2] (setting [4]) was 12%. Also, in assay [2] (component (I) alone, 0.025 ppm), the control value is recorded as 22%. Besides, the control value in assay [2] (component (I) alone, 0.1 ppm) is reported as 35%. Further, in assay [2] (component (I) alone, 0.4 ppm), the control value is listed as 85%. In assay [3], the inhibition at 6.3 ppm came to 32%, the inhibition at 12.5 ppm worked out at 41%, the inhibition at 25 ppm was determined as 42% and the inhibition at 50 ppm is 44%. Also, the inhibition at 100 ppm in assay [3] was found to be 49%.
For the compound `CCON=C1CN(C(=O)C(OC)c2ccc(-c3noc(C(F)(F)F)n3)cc2)C1` (stereo not shown) [Compound 5], in assay [1] (Compound 5 alone), the inhibition at 0.025 ppm was 4%, the inhibition at 0.1 ppm is 76% and the inhibition at 0.4 ppm came to 90%. Also, in assay [2] (setting [4]), the control value is on record as 7%. Further, the control value in assay [2] (component (I) alone, 0.025 ppm) is given as 18%. The control value in assay [2] (component (I) alone, 0.1 ppm) turned out to be 46%. Also, the control value in assay [2] (component (I) alone, 0.4 ppm) was determined as 90%. In assay [3], the inhibition at 6.3 ppm was 61%, the inhibition at 12.5 ppm came out at 68%, the inhibition at 25 ppm came out at 68% and the inhibition at 50 ppm worked out at 64%. Also, the inhibition at 100 ppm in assay [3] is 72%.
